Laboratory results reported in US10159636B2, “Cosmetic composition containing acetylated oligoglucuronans” (Sederma, S.A.S., priority 2008, dated 2018).
Marks after values point to notes of the source that are not given here.

Columns and labels:
[1] = biological target: serum albumin incubated with fructose (Homo sapiens, UniProt P02768); experiment: Anti-glycation efficacy: inhibition of AGE (FFI compounds) production, fluorescence; type: biochemical; conditions: 0.03%; serum albumin 2% + 100 mM fructose, pH 7.4, 50° C., 1 week; N=2
serum albumin incubated with fructose, sequence (P02768 25-609): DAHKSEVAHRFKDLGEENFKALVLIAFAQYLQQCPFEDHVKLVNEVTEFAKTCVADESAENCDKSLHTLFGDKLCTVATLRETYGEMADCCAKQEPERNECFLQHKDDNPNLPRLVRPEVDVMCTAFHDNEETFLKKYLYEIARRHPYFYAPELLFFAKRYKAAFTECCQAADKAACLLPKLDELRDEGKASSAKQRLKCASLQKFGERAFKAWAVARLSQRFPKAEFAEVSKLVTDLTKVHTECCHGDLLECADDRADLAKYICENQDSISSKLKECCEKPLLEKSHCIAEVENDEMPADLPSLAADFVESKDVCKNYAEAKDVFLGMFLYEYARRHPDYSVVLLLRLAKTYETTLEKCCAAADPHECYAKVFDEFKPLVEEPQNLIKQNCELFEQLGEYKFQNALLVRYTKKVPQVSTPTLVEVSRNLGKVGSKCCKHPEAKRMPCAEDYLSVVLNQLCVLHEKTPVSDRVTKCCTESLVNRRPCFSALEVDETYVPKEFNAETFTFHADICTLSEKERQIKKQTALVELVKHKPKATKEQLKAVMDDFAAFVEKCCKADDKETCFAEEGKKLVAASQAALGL
Procedure: Principle: Non-enzymatic glycation between a protein and a reducing sugar is a slow spontaneous reaction which can be accelerated by temperature. An in vitro study model consisting of serum albumin incubated with fructose for one week was used. Glycation is recorded from the formation of fluorescent compounds, generally pentosides or FFI (furoyl-furanyl-imidazoles).
Protocol: In our test, serum albumin (2%) and 100 mM fructose are incubated in a pH 7.4 phosphate buffer at 50° C. for 1 week. […] The glycation reference value (Control) for the glycation after 1 week is determined from the serum albumin and fructose incubation. The positive glycation inhibition Control is obtained by incubating in the presence of aminoguanidine 0.03% and the test incubations are performed in the presence of 9.1% acetylated oligoglucuronans at different concentrations.
Results: For each fluorescence value measured the percentage change is calculated compared to the Control. The results shown in the table below are the mean values from N=2 tests.

[2] = test system: elastin synthesis by fibroblasts; experiment: Assay of elastin synthesis by fibroblasts (sandwich ELISA of culture supernatants); type: cell-based, human
Procedure: Normal human fibroblasts are inseminated. After anchoring for 24 h, TGF-β1 and 9.1% acetylated oligoglucuronans are placed in contact with the cells for 72 h. The culture supematants are removed and the amount of elastin is quantified by sandwich ELISA.
TGF-β1 is used as the positive control for elastin synthesis.
(§1) Analysis of variance is performed on the data (treated cases compared to untreated cases). If variances are equal, a Student t test for paired series is then performed on the mean values.
Normal human fibroblasts are inseminated. After anchoring for 24 h, TGF-β1, oligoglucuronans I, oligoglucuronans II, oligoglucuronans IIII, glucuronic acid and galacturonic acid are placed in contact with the cells for 72 h. The culture supernatants are removed and the amount of elastin present is quantified by sandwich ELISA.
TGF-β1 is used as a positive control for elastin.

[3] = test system: hyaluronic acid synthesis by keratinocytes; experiment: Assay of hyaluronic acid synthesis by keratinocytes (sandwich ELISA); type: cell-based, human; conditions: for % Change/untreated cells (hyaluronic acid synthesis by keratinocytes): 72 h
Procedure: Human keratinocytes are inseminated. After anchoring for 24 h, retinoic acid and 9.1% acetylated oligoglucuronans are placed in contact with the cells for 72 h. The culture supernatants are removed and the amount of hyaluronic acid is quantified by sandwich ELISA.
Retinoic acid is used at the positive control for hyaluronic acid synthesis.
as §1
(§2) Human keratinocytes are inseminated into well plates. After anchoring for 24 h, retinoic acid, oligoglucuronans I, oligoglucuronans II, oligoglucuronans III, glucuronic acid and galacturonic acid are placed in contact with the cells for 72 h. The culture supernatants are removed and the amount of hyaluronic acid is quantified by sandwich ELISA.
Retinoic acid is used as a positive control of hyaluronic acid.

[4] = test system: laminin synthesis by keratinocytes; experiment: Assay of laminin synthesis by keratinocytes (sandwich ELISA); type: cell-based, human; conditions: for Conclusion (laminin by keratinocytes) / % Change/untreated cells (laminin by keratinocytes): Table 9; for % Change/untreated cells (laminin by keratinocytes): n = 5
Procedure: Human keratinocytes are inseminated into 24 well plates. After anchoring for 24 h, TGF-β1 and 9.1% acetylated oligoglucuronans are placed in contact with the cells for 72 h. The culture supernatants are removed and the amount of laminin is quantified by sandwich ELISA.
TGF-β1 is used as a positive control for laminin synthesis.
as §1
as §2, with “TGF-β1,” for “retinoic acid,”, “laminin” for “hyaluronic acid”

[5] = Table 7, Eq 0.04% oligoglucuronans I, 72 h, n = 5
[6] = Table 8, Eq 0.04% oligoglucuronans I, n = 5
[7] = Table 8, Eq 0.06% oligoglucuronans I, n = 5
[8] = Eq 0.04% oligoglucuronans 1, 72 h
[9] = Eq 0.06% oligoglucuronans 1, 72 h

| Compound | Conclusion (elastin synthesis by fibroblasts) ([2]; Table 7) | % Change/untreated cells (elastin synthesis by fibroblasts) [2, 5] | Conclusion (hyaluronic acid synthesis by keratinocytes) ([3]; Table 8) | % Change/untreated cells (hyaluronic acid synthesis by keratinocytes) [3, 6] | % Change/untreated cells (hyaluronic acid synthesis by keratinocytes) [3, 7] | Conclusion (laminin by keratinocytes) [4] | % Change/untreated cells (laminin by keratinocytes) [4, 8] | % Change/untreated cells (laminin by keratinocytes) [4, 9] [%] | also measured |
| --- | --- | --- | --- | --- | --- | --- | --- | --- | --- |
| N=C(N)NN [Aminoguanidine, aminoguanidine] | – | – | – | – | – | – | – | – | Reduction in AGE % compared to Control [1]: 67 +/− 2% |
| O=C[C@H](O)[C@@H](O)[C@@H](O)[C@H](O)C(=O)O [Galacturonic acid] | =0 | −1% | =0 | +7% | +12% | =0 | +1% | −4 | – |
| O=C[C@H](O)[C@@H](O)[C@H](O)[C@H](O)C(=O)O [Glucuronic acid] | =0 | +32% | =0 | +10% | +2% | =0 | −7% | −12 | – |
| CC1=C(/C=C/C(C)=C/C=C/C(C)=C/C(=O)O)C(C)(C)CCC1 [Retinoic acid] | – | – | – | – | – | – | – | – | % Change/untreated cells (hyaluronic acid synthesis by keratinocytes) ([3]; Table 2, 1 μM, N = 3): +144%*; % Change/untreated cells (hyaluronic acid synthesis by keratinocytes) ([3]; Table 8, 1 μM, n = 5): +136%* |
| TGF-β1: Positive control for elastin (fibroblast) and laminin (keratinocytes) | Positive | – | – | – | – | Positive | – | – | % Change/untreated cells (elastin synthesis by fibroblasts) ([2]; Table 1, 10 ng/mL, 72 h contact, N = 2): +122%*; % Change/untreated cells (elastin synthesis by fibroblasts) ([2]; Table 7, 10 ng/mL, 72 h, n = 5): +106%*; % Change/untreated cells (laminin synthesis by keratinocytes) ([4]; Table 3, 10 ng/mL, 72 h, N = 3): +291%*; % Change/untreated cells (laminin by keratinocytes) ([4]; 10 ng/mL, 72 h): +255%* |
